Measurements as given in patent US20110046381A1, “NOVEL 4-{3-[4-(3-{4-[AMINO (BUTOXYCARBONYLIMINO) METHYL] PHENOXY} PROPYL)-1-PIPERIDINYL] PROPOXY]-N'-(BUTOXYCARBONYL) BENZAMIDINE CRYSTALS” (Toyama Chemical Co., Ltd., priority 2007, published 2011).

Key:
[1] = Tapped density (Test Example 1); format: physicochemical; conditions: sieved 18 mesh, tapped 180 times, W/V1
Protocol: The test materials passed through a sieve (18 mesh) were filled into a measuring cylinder and the weight W(g) of the filled test materials was measured. Next, the measuring cylinder containing the test materials was mechanically tapped 180 times by a powder characteristic measuring device (a powder tester PT-E, Hosokawa Micron Corporation). After tapping, the volume V1 (mL) of the tapped test materials was measured. By the following formula, the tapped density (g/mL) was calculated. Tapped density (g/mL)=W/V1

[2] = Surface potential after corona discharge (Test Example 2); format: physicochemical; conditions: 25° C., 50% RH; corona discharge −4 kV for 2 minutes
Protocol: The following test was conducted in a thermo-hygrostat (25° C., 50% RH). The test materials were set in a sample plate (SUS304, the surface was ground by a buff400, the volume: about 6 mL, the depth: 3 mm, cylindrical, the upper aspect was opened), and was charged by corona discharge (the corona voltage: −4 kV) from an impressed voltage device for 2 minutes (the distance between the impressed voltage device and the sample plate: 30 mm). After charging, the surface potential of the test materials was measured (the distance between the sensor and the sample: 5 mm). Thermo-hygrostat: KCL-2000, EYELA CORPORATION Surface potential measurement device: SK-200, KEYENCE CORPORATION Impressed voltage device: SJ-G036, KEYENCE CORPORATION Data logger: AD-DIO Card Bus, Interface Corporation

[3] = Sticking test, scraper pressure of tablets (Test Example 3); format: physicochemical; conditions: tablets containing 200 mg, diameter 8.5 mm, loading pressure 10 kN
Protocol: Tablets (flat-shaped, the diameter 8.5 mm) containing 200 mg of the test materials were prepared by using a tableting process analyzer (Tab Flex TAB-10, OKADA SEIKO CO., LTD.) (the loading pressure: 10 kN). Next, the scraper pressure was measured when the tablets were pushed out by a scraper.

[4] = Adhesion test to a metal cup (Test Example 4); format: physicochemical; conditions: 5 g test material in SUS304 metal cup, weight adhering after turning over the cup
Protocol: 5 g of the test materials passed through a sieve (18 mesh) are filled in a metal cup (SUS304, the internal diameter: 65 mm, the volume: about 200 mL), and then the test materials were removed by turning over the cup. The weight of the test materials adhering on the surface of the cup was measured.

[5] = Compression moldability test, tablet hardness (Test Example 5); format: physicochemical; conditions: 200 mg tablets
Protocol: Tablets (flat-shaped, the diameter: 8.5 mm) containing 200 mg of the test materials were prepared by using a tableting process analyzer (Tab Flex TAB-10, OKADA SEIKO CO., LTD.) (The loading pressure: 5 and 10 kN). Next, the breaking strength of the tablets was measured by a tablet hardness tester (PC-30, OKADA SEIKO CO., LTD.).

[6] = tested on: Candida albicans TIMM1623; test: Mouse Candida infection model test, oral administration (Test Example 6); format: in vivo; conditions: immunosuppressed mice, i.v. infection about 3×10^4 CFU/mouse; 1 mg/kg orally once daily for 4 days; observed for 14 days; 5 mice/group
Protocol: Candida albicans TIMM1623, which was obtained from overnight cultures grown on Sabouraud dextrose agar (SDA) plates at 35° C., was suspended in sterile physiological saline, then diluted to prepare a suspension of inoculum organism.
Transient immunosuppression in mice (four-week-old, 5 mice/group) was induced by intraperitoneal treatment with 200 mg/kg cyclophosphamide 4 days before the infection and with 100 mg/kg cyclophosphamide 1 day after the infection. Infection was induced by the intravenous inoculation of 0.2 mL of the cell suspension of Candida albicans TIMM1623 (about 3×10^4 CFU/mouse) via the lateral tail vein. The test compound was dissolved in 0.1 mol/L hydrochloric acid, diluted by sterilized water and orally administered at 1 mg/kg of mouse body weight. The therapy was started at 2 hours after infection and carried out once daily for 4 days. The equivalent amount of sterilized physiological saline was administered to the group to which no test compound was administered. The survival number of mice was observed and recorded for 14 days.

SMILES	Tapped density [1]	Surface potential [2]	Scraper pressure [3]	Adhering amount [4]	Hardness ([5]; Loading pressure 5 kN)	Hardness ([5]; Loading pressure 10 kN)	mice survived [6]
CCCCOC(=O)N=C(N)c1ccc(OCCCC2CCN(CCCOc3ccc(C(N)=NC(=O)OCCCC)cc3)CC2)cc1 [Type I crystal, 4-{3-[4-(3-{4-[amino(butoxycarbonylimino)methyl]phenoxy}propyl)-1-piperidinyl]propoxy}-N′-(butoxycarbonyl)benzamidine]	0.22 g/mL	−2.3 kV	7.2 kN	70 mg	56 N	57 N	80%
CCCCOC(=O)N=C(N)c1ccc(OCCCC2CCN(CCCOc3ccc(C(N)=NC(=O)OCCCC)cc3)CC2)cc1 [Type II crystal, 4-{3-[4-(3-{4-[amino(butoxycarbonylimino)methyl]phenoxy}propyl)-1-piperidinyl]propoxy}-N′-(butoxycarbonyl)benzamidine]	0.40 g/mL	–	2.9 kN	17 mg	63 N	94 N	80%
CCCCOC(=O)N=C(N)c1ccc(OCCCC2CCN(CCCOc3ccc(C(N)=NC(=O)OCCCC)cc3)CC2)cc1 [Type III crystal, 4-{3-[4-(3-{4-[amino(butoxycarbonylimino)methyl]phenoxy}propyl)-1-piperidinyl]propoxy}-N′-(butoxycarbonyl)benzamidine]	0.45 g/mL	−1.9 kV	1.9 kN	22 mg	66 N	95 N	80%
CCCCOC(=O)N=C(N)c1ccc(OCCCC2CCN(CCCOc3ccc(C(N)=NC(=O)OCCCC)cc3)CC2)cc1 [Type IV crystal, 4-{3-[4-(3-{4-[amino(butoxycarbonylimino)methyl]phenoxy}propyl)-1-piperidinyl]propoxy}-N′-(butoxycarbonyl)benzamidine]	0.47 g/mL	−1.3 kV	2.9 kN	40 mg	–	–	80%
